The record followed here is patent US20230212159A1, “Process for the Production of Ferroportin Inhibitors” (Vifor (International) AG, priority 2020, published 2023).

The test addresses T1, human Fpn-GFP fusion protein (Homo sapiens, UniProt Q9NP59).
T1 construct: expressed in transfected cells; host or cells: HEK-293 cell line #354 (derivative of HEK-293 Tet-ON Advanced)
T1 sequence (Q9NP59 1-571): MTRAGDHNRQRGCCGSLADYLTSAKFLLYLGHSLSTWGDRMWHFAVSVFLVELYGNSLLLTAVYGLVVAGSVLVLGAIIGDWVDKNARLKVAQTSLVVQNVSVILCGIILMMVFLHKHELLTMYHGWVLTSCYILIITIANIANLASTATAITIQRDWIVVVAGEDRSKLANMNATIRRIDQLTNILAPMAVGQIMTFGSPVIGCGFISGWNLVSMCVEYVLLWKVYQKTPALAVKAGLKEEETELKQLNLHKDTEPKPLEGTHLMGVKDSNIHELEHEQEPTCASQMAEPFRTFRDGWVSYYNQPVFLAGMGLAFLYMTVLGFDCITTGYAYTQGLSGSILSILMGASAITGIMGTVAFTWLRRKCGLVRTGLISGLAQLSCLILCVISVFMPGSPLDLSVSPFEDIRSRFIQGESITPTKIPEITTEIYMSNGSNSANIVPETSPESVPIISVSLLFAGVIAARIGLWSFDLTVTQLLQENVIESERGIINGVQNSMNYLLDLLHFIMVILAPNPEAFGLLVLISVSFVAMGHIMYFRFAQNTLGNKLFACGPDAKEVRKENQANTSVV
Nature of the test: Ferroportin internalization and degradation assay (FACS, HEK-293 cell line #354). The format is cell-based. How it is done:
HEK-293 cell line #354 (described in 11.3) was used to measure the capacity of the compounds to induce internalization and degradation of ferroportin (Fpn) by fluorescence activated cell sorting (FACS). Growing HEK-293 #354 cells in doxycycline containing media induced expression of human Fpn-GFP fusion protein on the cell surface. […] Small molecular weight Fpn inhibitor compounds were tested for dose-dependent effects on the Fpn-GFP mean fluorescence intensity (MFI) on HEK-293 cell line #354, as described below.
HEK#354 cells were harvested from ca. 80% confluent cultures, seeded at 0.6x10^6 cells/ml in DMEM/F12 GlutaMAX™ medium (Invitrogen, Cat. 31331-028) containing 10% FBS (Clontech, Cat. 631106), 1% Penicillin-Streptomycin (Invitrogen, Cat. 15140-122), 200 µg/ml Hygromycin B (Invitrogen, Cat. 10687-010), Blasticidin 5 µg/ml, (Invitrogen, Cat. R210-01), 4 µg/ml doxycycline (Clontech, Cat. 631311), 50 µl per well of 384 well plates (Greiner; Cat. 781091) and grown at 37° C. with 5% CO2. After overnight incubation, 10 µl/well of dilution series of the test compounds were added in quadruplicates and plates were further incubated overnight at 37° C. with 5% CO2. Cells were washed once with FACS buffer (PBS containing 1% FBS, 2 mM EDTA and 0.05% NaN3), harvested in FACS buffer with 0.5 µg/ml propidium iodide (Sigma, Cat. P4864) and analyzed in a flow cytometer (CANTO^tm II, BD Biosciences) equipped with high throughput sampler. Live HEK#354 cells were gated as propidium iodide negative population and analyzed for expression of Fpn-GFP. MFI of Fpn-GFP of > 2000 live cells for each compound dilution was calculated using FlowJo (Tree Star’s, Oregon) and the potency of the Fpn-inhibitors to induce internalization and degradation of Fpn-GFP was calculated as described for the hepcidin internalization assay. EC50 data of the Compounds (II) and (II′) tested in the ferroportin internalization and degradation assay by FACS are listed in Table 4. The average EC50 value of hepcidin in this assay is 0.004 ± 0.002 µM.

Setting [1] is: HEK-293 cell line #354, FACS, tested as 3HCl-salts, n=2, read-out: Fpn internalization and degradation (HEK354 FACS) IC50.
Setting [2] is: average of multiple measurements, HEK-293 #354 FACS, 3HCl-salts, read-out: EC50 (ferroportin internalization and degradation assay).

Read-outs that look alike come from different tables or passages of the source.

For `O=C(NCc1ncccc1F)c1coc(CCNCCc2nc3ccccc3[nH]2)n1` [Compound (II)], the DC50 under setting [1] was 119 nM and the DC50 under setting [2] is 119 nM.

For `O=C(NCc1ncccc1Br)c1coc(CCNCCc2nc3ccccc3[nH]2)n1` [Compound (II′)], the DC50 was determined as 161 nM under setting [1] and 161 nM under setting [2].

As for `CC[C@H](C)[C@@H]1NC(=O)[C@@H](NC(=O)[C@@H](NC(=O)[C@@H]2CCCN2C(=O)[C@H](Cc2ccccc2)NC(=O)[C@H](Cc2c[nH]cn2)NC(=O)[C@@H](NC(=O)[C@@H](N)CC(=O)O)[C@@H](C)O)[C@@H](C)CC)CSSC[C@@H](C(=O)N[C@@H](CCCCN)C(=O)N[C@H](C(=O)O)[C@@H](C)O)NC(=O)[C@@H]2CSSC[C@@H]3NC(=O)[C@@H]4CSSC[C@H](NC(=O)[C@H](Cc5ccccc5)NC1=O)C(=O)N[C@@H](CSSC[C@H](NC(=O)[C@H](CCCCN)NC(=O)[C@H](CO)NC(=O)[C@H](CCCNC(=N)N)NC(=O)[C@H](Cc1c[nH]cn1)NC3=O)C(=O)NCC(=O)N[C@@H](CCSC)C(=O)N2)C(=O)NCC(=O)N4` [hepcidin, reference compound], the DC50 under setting [1] came out at 6 nM.
